biological target: T1, hDGAT1 (Homo sapiens, UniProt O75907); experiment: In-vitro DGAT1 assay (14C oleoyl CoA, hDGAT1 microsomes from Sf9 cells); conditions: at 1 μM
T1 sequence (O75907 1-488): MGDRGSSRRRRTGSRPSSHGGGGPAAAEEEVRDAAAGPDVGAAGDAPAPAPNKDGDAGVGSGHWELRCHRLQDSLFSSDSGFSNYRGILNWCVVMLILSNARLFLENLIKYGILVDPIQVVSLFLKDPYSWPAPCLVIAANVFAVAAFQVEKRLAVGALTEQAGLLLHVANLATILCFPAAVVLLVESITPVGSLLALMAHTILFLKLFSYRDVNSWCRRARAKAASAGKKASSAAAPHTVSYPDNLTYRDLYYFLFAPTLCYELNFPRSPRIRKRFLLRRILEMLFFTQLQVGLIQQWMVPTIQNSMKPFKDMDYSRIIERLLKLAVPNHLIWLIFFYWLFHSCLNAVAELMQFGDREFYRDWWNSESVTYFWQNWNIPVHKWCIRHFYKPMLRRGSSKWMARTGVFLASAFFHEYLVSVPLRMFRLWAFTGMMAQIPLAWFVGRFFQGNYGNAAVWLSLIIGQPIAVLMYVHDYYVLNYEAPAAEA

Row | SMILES | % Inhibition of hDGAT1
1 | CC(C)[C@@H](C(=O)O)N1Cc2ccc(-c3cnc(NC(=O)c4ccc(-c5ccccc5)cc4)cn3)cc2C1=O [Example 507, (S)-2-(6-(5-Biphenyl-4-ylcarboxamidopyrazin-2-yl)-1-oxoisoindolin-2-yl)-3-methylbutanoic acid] | ++ (>50% Inhibition)
2 | CC(C)(C(=O)O)N1Cc2ccc(-c3ccc(NC(=O)c4ccc(-c5ccccc5)cc4)cc3)cc2C1=O [Example 517, 2-(6-(4-([1,1′-Biphenyl]-4-ylcarboxamido)phenyl)-1-oxoisoindolin-2-yl)-2-methyl propanoic acid] | ++ (>50% Inhibition)
3 | O=C(Nc1ccc(-c2ccc3c(c2)C(=O)N(C2(C(=O)O)CCCC2)C3)cc1)c1ccc(-c2ccccc2)cc1 [Example 529, 1-(6-(4-([1,1′-Biphenyl]-4-ylcarboxamido)phenyl)-1-oxoisoindolin-2-yl)cyclopentane carboxylic acid] | ++ (>50% Inhibition)
4 | CC(C)[C@H](C(=O)O)N1Cc2ccc(-c3ccc(NC(=O)c4ccc(-c5ccccc5)cc4)cc3)cc2C1=O [Example 541, (R)-2-(6-(4-([1,1′-Biphenyl]-4-ylcarboxamido)phenyl)-1-oxoisoindolin-2-yl)-3-methylbutanoic acid] | ++ (>50% Inhibition)
5 | O=C(Nc1ccc(-c2ccc3c(c2)C(=O)N(C2CCCC(C(=O)O)C2)C3)cc1)c1ccc(-c2ccccc2)cc1 (stereo not drawn) [Example 545, 3-(6-(4-([1,1′-Biphenyl]-4-ylcarboxamido)phenyl)-1-oxoisoindolin-2-yl)cyclo hexane carboxylic acid] | ++ (>50% Inhibition)
6 | O=C(Nc1ccc(-c2ccc3c(c2)C(=O)N(C2CCC(C(=O)O)CC2)C3)cc1)c1ccc(-c2ccccc2)cc1 (stereo not drawn) [Example 557, (1r,4r)-4-(6-(4-([1,1′-Biphenyl]-4-ylcarboxamido)phenyl)-1-oxoisoindolin-2-yl)cyclohexanecarboxylic acid] | ++ (>50% Inhibition)
7 | O=C(Nc1ccc(-c2ccc3c(c2)C(=O)N([C@H]2CC[C@H](C(=O)O)CC2)C3)cc1)c1cccc(Cl)c1 [Example 559, (1r,4r)-4-(6-(4-(3-Chlorobenzamido)phenyl)-1-oxoisoindolin-2-yl)cyclohexane carboxylic acid] | ++ (>50% Inhibition)
8 | O=C(Nc1ccc(-c2ccc3c(c2)C(=O)N([C@H]2CC[C@H](C(=O)O)CC2)C3)cc1)c1ccc(Cl)cc1 [Example 561, (1r,4r)-4-(6-(4-(4-Chlorobenzamido)phenyl)-1-oxoisoindolin-2-yl)cyclohexane carboxylic acid] | + (10-50% Inhibition)
9 | O=C(Nc1ccc(-c2ccc3c(c2)C(=O)N([C@H]2CC[C@H](C(=O)O)CC2)C3)cc1)c1ccc(C(F)(F)F)cc1 [Example 563, (1r,4r)-4-(1-Oxo-6-(4-(4-(trifluoromethyl)benzamido)phenyl)isoindolin-2-yl)cyclohexanecarboxylic acid] | + (10-50% Inhibition)
10 | O=C(Nc1ccc(-c2ccc3c(c2)C(=O)N(C24C[C@@H]5C[C@@H](CC(C(=O)O)(C5)C2)C4)C3)cc1)c1cccc(Cl)c1 [Example 567, (1r,3s,5R,7S)-3-(6-(4-(3-Chlorobenzamido)phenyl)-1-oxoisoindolin-2-yl)adamantane-1-carboxylic acid] | + (10-50% Inhibition)
11 | O=C(Nc1ccc(-c2ccc3c(c2)C(=O)N(C24C[C@@H]5C[C@@H](CC(C(=O)O)(C5)C2)C4)C3)cc1)c1ccc(Cl)cc1 [Example 569, (1r,3s,5R,7S)-3-(6-(4-(4-Chlorobenzamido)phenyl)-1-oxoisoindolin-2-yl)adamantane-1-carboxylic acid] | + (10-50% Inhibition)
12 | O=C(Nc1ccc(-c2ccc3c(c2)C(=O)N(C24C[C@@H]5C[C@@H](CC(C(=O)O)(C5)C2)C4)C3)cc1)c1ccc(C(F)(F)F)cc1 [Example 571, (1r,3s,5R,7S)-3-(1-Oxo-6-(4-(4-(trifluoromethyl)benzamido)phenyl)isoindolin-2-yl)adamantane-1-carboxylic acid] | ++ (>50% Inhibition)
13 | Cc1ccc(C(=O)Nc2ccc(-c3ccc4c(c3)C(=O)N(C35C[C@@H]6C[C@@H](CC(C(=O)O)(C6)C3)C5)C4)cc2)cc1 [Example 572, (1r,3s,5R,7S)-3-(6-(4-(4-Methylbenzamido)phenyl)-1-oxoisoindolin-2-yl)adamantane-1-carboxylic acid] | ++ (>50% Inhibition)
14 | O=C(Nc1ccc(-c2ccc3c(c2)C(=O)N(C2(C(=O)O)CCC2)C3)cc1)c1ccc(-c2ccccc2)cc1 [Example 576, 1-(6-(4-([1,1′-Biphenyl]-4-ylcarboxamido)phenyl)-1-oxoisoindolin-2-yl)cyclo butanecarboxylic acid] | ++ (>50% Inhibition)

same assay, conditions: read-out: % Inhibition of hDGAT1

Row | SMILES | inhibition at 1 µM
15 | CC(C)[C@@H](C(=O)O)N1Cc2ccc(-c3ccc(NC(=O)c4ccc(OC(F)(F)F)cc4)nn3)cc2C1=O [Example 502, (S)-3-Methyl-2-(1-oxo-6-(6-(4-(trifluoromethoxy)benzamido)pyridazin-3-yl)isoindolin-2-yl)butanoic acid] | > 50%
16 | CC(C)[C@@H](C(=O)O)N1Cc2ccc(-c3cnc(NC(=O)c4ccc(C(C)(C)C)cc4)cn3)cc2C1=O [Example 505, (S)-2-(6-(5-(4-tert-Butylbenzamido)pyrazin-2-yl)-1-oxoisoindolin-2-yl)-3-methylbutanoic acid] | 10 to 50%
17 | CCCCOc1ccc(C(=O)Nc2cnc(-c3ccc4c(c3)C(=O)N([C@H](C(=O)O)C(C)C)C4)cn2)cc1 [Example 509, (S)-2-(6-(5-(4-Butoxybenzamido)pyrazin-2-yl)-1-oxoisoindolin-2-yl)-3-methylbutanoic acid] | > 50%
18 | CC(C)(C)c1ccc(C(=O)Nc2ccc(-c3ccc4c(c3)C(=O)N(C(C)(C)C(=O)O)C4)cc2)cc1 [Example 519, 2-(6-(4-(4-(tert-Butyl)benzamido)phenyl)-1-oxoisoindolin-2-yl)-2-methyl propanoic acid] | > 50%
19 | CC(C)(C(=O)O)N1Cc2ccc(-c3ccc(NC(=O)c4ccc(OC(F)(F)F)cc4)cc3)cc2C1=O [Example 523, 2-Methyl-2-(1-oxo-6-(4-(4-(trifluoromethoxy)benzamido)phenyl)isoindolin-2-yl)propanoic acid] | 10 to 50%
20 | CCCCCc1ccc(C(=O)Nc2ccc(-c3ccc4c(c3)C(=O)N(C(C)(C)C(=O)O)C4)cc2)cc1 [Example 525, 2-Methyl-2-(1-oxo-6-(4-(4-pentylbenzamido)phenyl)isoindolin-2-yl)propanoic acid] | 10 to 50%
21 | O=C(Nc1ccc(-c2ccc3c(c2)C(=O)N(C2CCCC(C(=O)O)C2)C3)cc1)c1cccc(Cl)c1 (stereo not drawn) [Example 547, 3-(6-(4-(3-Chlorobenzamido)phenyl)-1-oxoisoindolin-2-yl)cyclohexane carboxylic acid] | > 50%
22 | Cc1oc(-c2ccccc2)nc1C(=O)Nc1ccc(-c2ccc3c(c2)C(=O)N(C2CCCC(C(=O)O)C2)C3)cc1 (stereo not drawn) [Example 553, 3-(6-(4-(5-Methyl-2-phenyloxazole-4-carboxamido)phenyl)-1-oxoisoindolin-2-yl)cyclohexanecarboxylic acid] | > 50%

Results, then the compound that gave them:

Row | inhibition at 1 µM | SMILES
23 | > 50% | CC(C)(C(=O)O)N1Cc2ccc(-c3ccc(NC(=O)c4ccc(Cl)cc4)cc3)cc2C1=O [Example 521, 2-(6-(4-(4-Chlorobenzamido)phenyl)-1-oxoisoindolin-2-yl)-2-methylpropanoic acid]
24 | > 50% | CC(C)(C)c1ccc(C(=O)Nc2ccc(-c3ccc4c(c3)C(=O)N(C3(C(=O)O)CCCC3)C4)cc2)cc1 [Example 531, 1-(6-(4-(4-(tert-Butyl)benzamido)phenyl)-1-oxoisoindolin-2-yl)cyclopentane carboxylic acid]
25 | > 50% | O=C(Nc1ccc(-c2ccc3c(c2)C(=O)N(C2(C(=O)O)CCCC2)C3)cc1)c1ccc(Cl)cc1 [Example 533, 1-(6-(4-(4-Chlorobenzamido)phenyl)-1-oxoisoindolin-2-yl)cyclopentane carboxylic acid]
26 | > 50% | O=C(Nc1ccc(-c2ccc3c(c2)C(=O)N(C2(C(=O)O)CCCC2)C3)cc1)c1ccc(OC(F)(F)F)cc1 [Example 535, 1-(1-Oxo-6-(4-(4-(trifluoromethoxy)benzamido)phenyl)isoindolin-2-yl)cyclopentane carboxylic acid]
27 | > 50% | CCCCCc1ccc(C(=O)Nc2ccc(-c3ccc4c(c3)C(=O)N(C3(C(=O)O)CCCC3)C4)cc2)cc1 [Example 537, 1-(1-Oxo-6-(4-(4-pentylbenzamido)phenyl)isoindolin-2-yl)cyclopentane carboxylic acid]
28 | > 50% | O=C(Nc1ccc(-c2ccc3c(c2)C(=O)N(C2CCCC(C(=O)O)C2)C3)cc1)c1ccc(Cl)cc1 (stereo not drawn) [Example 549, 3-(6-(4-(4-Chlorobenzamido)phenyl)-1-oxoisoindolin-2-yl)cyclohexane carboxylic acid]
29 | > 50% | O=C(Nc1ccc(-c2ccc3c(c2)C(=O)N(C2(C(=O)O)CCC2)C3)cc1)c1ccc(Cl)cc1 [Example 578, 1-(6-(4-(4-Chlorobenzamido)phenyl)-1-oxoisoindolin-2-yl)cyclobutane carboxylic acid]
30 | > 50% | O=C(Nc1ccc(-c2ccc3c(c2)C(=O)N(C2(C(=O)O)CCC2)C3)cc1)c1ccc(C(F)(F)F)cc1 [Example 580, 1-(1-Oxo-6-(4-(4-(trifluoromethyl)benzamido)phenyl)isoindolin-2-yl)cyclo butane carboxylic acid]

From patent US8748426B2, “Inhibitors of diacylglycerol acyl transferase” (Piramal Enterprises Limited, priority 2009, dated 2014)
